US6525001B1, “Substituted pyrimidine and pyridine herbicides” (Mid-American Commercialization Corporation, priority 1997, dated 2003)

Columns and labels:
Assay in all cases: Test B pre-/postemergence
Format in all cases: in vivo
Design in all cases: key: 0 is no effect; 10 is complete control
[1] = test system: bedstraw (Galium aparine)
Method in brief: (§1)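 Response scores run from 0, meaning no effect, to 10, meaning complete control, assigned by eye relative to controls twelve to sixteen days after spraying. Treatment was both preemergence on planted seed and postemergence on plants at the 1- to 4-leaf stage.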

[2] = test system: blackgrass (Alopecurus myosuroides)
Method in brief: as §1

[3] = test system: broadleaf signalgrass (Brachiaria decumbens)
Method in brief: as §1

[4] = test system: cocklebur (Xanthium strumarium)
Method in brief: as §1

corn (Zea mays) = test system: corn (Zea mays)
Method in brief: as §1

[5] = test system: crabgrass (Digitaria sanguinalis)
Method in brief: as §1

[6] = test system: giant foxtail (Setaria faberii)
Method in brief: as §1

[7] = test system: momingglory (Ipomoea hederacea)
Method in brief: as §1

[8] = test system: pigweed (Amaranthus retroflexus)
Method in brief: as §1

[9] = test system: purple nutsedge (Cyperus rotundus)
Method in brief: as §1

[10] = test system: sugar beet (Beta vulgaris)
Method in brief: as §1

[11] = test system: velvetleaf (Abutilon theophrasti)
Method in brief: as §1

[12] = test system: wheat (Triticum aestivum)
Method in brief: as §1

wild oat (Avena fatua) = test system: wild oat (Avena fatua)
Method in brief: as §1

[13] = Preemergence, Rate 62 g/ha, scale of 0 to 10

Cc1cnc(-n2cnc(C(F)(F)F)c2)nc1C(=O)c1cccc(C(F)(F)F)c1 [Compound 61]
Plant response rating, Bedstraw [1, 13]: 3
Bedstraw plant response rating ([1]; Rate 62 g/ha, Postemergence): 8
Bedstraw plant response rating ([1]; Rate 125 g/ha, Postemergence): 8
Plant response rating, Bedstraw ([1]; Rate 125 g/ha, Preemergence): 4
Plant response rating, Bedstraw ([1]; Rate 250 g/ha, Postemergence): 9
Plant response rating, Bedstraw ([1]; Rate 250 g/ha, Preemergence): 6
Plant response rating, Bedstraw ([1]; Rate 500 g/ha, Postemergence): 9
Plant response rating, Bedstraw ([1]; Rate 500 g/ha, Preemergence): 9
Plant response rating, Blackgrass [2, 13]: 1
Blackgrass plant response rating ([2]; Rate 62 g/ha, Postemergence): 3
Blackgrass plant response rating ([2]; Rate 125 g/ha, Postemergence): 4
Plant response rating, Blackgrass ([2]; Rate 125 g/ha, Preemergence): 3
Plant response rating, Blackgrass ([2]; Rate 250 g/ha, Postemergence): 6
Plant response rating, Blackgrass ([2]; Rate 250 g/ha, Preemergence): 5
Plant response rating, Blackgrass ([2]; Rate 500 g/ha, Postemergence): 8
Plant response rating, Blackgrass ([2]; Rate 500 g/ha, Preemergence): 8
B. signalgrass plant response rating ([3]; Rate 62 g/ha, Postemergence): 3
B. signalgrass plant response rating ([3]; Rate 62 g/ha, Preemergence): 5
B. signalgrass plant response rating ([3]; Rate 125 g/ha, Postemergence): 4
Plant response rating, B. signalgrass ([3]; Rate 125 g/ha, Preemergence): 7
Plant response rating, B. signalgrass ([3]; Rate 250 g/ha, Postemergence): 4
Plant response rating, B. signalgrass ([3]; Rate 250 g/ha, Preemergence): 8
Plant response rating, B. signalgrass ([3]; Rate 500 g/ha, Postemergence): 5
Plant response rating, B. signalgrass ([3]; Rate 500 g/ha, Preemergence): 9
Plant response rating, Cocklebur [4, 13]: 0
Cocklebur plant response rating ([4]; Rate 62 g/ha, Postemergence): 3
Cocklebur plant response rating ([4]; Rate 125 g/ha, Postemergence): 7
Plant response rating, Cocklebur ([4]; Rate 125 g/ha, Preemergence): 0
Plant response rating, Cocklebur ([4]; Rate 250 g/ha, Postemergence): 8
Plant response rating, Cocklebur ([4]; Rate 250 g/ha, Preemergence): 1
Plant response rating, Cocklebur ([4]; Rate 500 g/ha, Postemergence): 8
Plant response rating, Cocklebur ([4]; Rate 500 g/ha, Preemergence): 10
Plant response rating, Corn (corn (Zea mays); [13]): 1
Corn plant response rating (corn (Zea mays); Rate 62 g/ha, Postemergence): 2
Corn plant response rating (corn (Zea mays); Rate 125 g/ha, Postemergence): 3
Plant response rating, Corn (corn (Zea mays); Rate 125 g/ha, Preemergence): 1
Plant response rating, Corn (corn (Zea mays); Rate 250 g/ha, Postemergence): 3
Plant response rating, Corn (corn (Zea mays); Rate 250 g/ha, Preemergence): 1
Plant response rating, Corn (corn (Zea mays); Rate 500 g/ha, Postemergence): 4
Plant response rating, Corn (corn (Zea mays); Rate 500 g/ha, Preemergence): 2
Plant response rating, Crabgrass [5, 13]: 3
Crabgrass plant response rating ([5]; Rate 62 g/ha, Postemergence): 3
Crabgrass plant response rating ([5]; Rate 125 g/ha, Postemergence): 3
Plant response rating, Crabgrass ([5]; Rate 125 g/ha, Preemergence): 5
Plant response rating, Crabgrass ([5]; Rate 250 g/ha, Postemergence): 7
Plant response rating, Crabgrass ([5]; Rate 250 g/ha, Preemergence): 8
Plant response rating, Crabgrass ([5]; Rate 500 g/ha, Postemergence): 9
Plant response rating, Crabgrass ([5]; Rate 500 g/ha, Preemergence): 10
Plant response rating, Giant foxtail [6, 13]: 8
Giant foxtail plant response rating ([6]; Rate 62 g/ha, Postemergence): 2
Giant foxtail plant response rating ([6]; Rate 125 g/ha, Postemergence): 4
Plant response rating, Giant foxtail ([6]; Rate 125 g/ha, Preemergence): 9
Plant response rating, Giant foxtail ([6]; Rate 250 g/ha, Postemergence): 5
Plant response rating, Giant foxtail ([6]; Rate 250 g/ha, Preemergence): 10
Plant response rating, Giant foxtail ([6]; Rate 500 g/ha, Postemergence): 9
Plant response rating, Giant foxtail ([6]; Rate 500 g/ha, Preemergence): 10
Morningglory plant response rating ([7]; Rate 62 g/ha, Postemergence): 5
Morningglory plant response rating ([7]; Rate 125 g/ha, Postemergence): 9
Plant response rating, Morningglory ([7]; Rate 125 g/ha, Preemergence): 3
Plant response rating, Morningglory ([7]; Rate 250 g/ha, Preemergence): 10
Plant response rating, Morningglory ([7]; Rate 500 g/ha, Postemergence): 9
Plant response rating, Morningglory ([7]; Rate 500 g/ha, Preemergence): 10
Plant response rating, Redroot pigweed [8, 13]: 8
Redroot pigweed plant response rating ([8]; Rate 62 g/ha, Postemergence): 8
Redroot pigweed plant response rating ([8]; Rate 125 g/ha, Postemergence): 9
Plant response rating, Redroot pigweed ([8]; Rate 125 g/ha, Preemergence): 9
Plant response rating, Redroot pigweed ([8]; Rate 250 g/ha, Postemergence): 9
Plant response rating, Redroot pigweed ([8]; Rate 250 g/ha, Preemergence): 9
Plant response rating, Redroot pigweed ([8]; Rate 500 g/ha, Postemergence): 9
Plant response rating, Redroot pigweed ([8]; Rate 500 g/ha, Preemergence): 10
Plant response rating, Nutsedge [9, 13]: 0
Nutsedge plant response rating ([9]; Rate 62 g/ha, Postemergence): 0
Nutsedge plant response rating ([9]; Rate 125 g/ha, Postemergence): 0
Plant response rating, Nutsedge ([9]; Rate 125 g/ha, Preemergence): 0
Plant response rating, Nutsedge ([9]; Rate 250 g/ha, Postemergence): 0
Plant response rating, Nutsedge ([9]; Rate 250 g/ha, Preemergence): 0
Plant response rating, Sugarbeets [10, 13]: 10
Sugarbeets plant response rating ([10]; Rate 62 g/ha, Postemergence): 9
Sugarbeets plant response rating ([10]; Rate 125 g/ha, Postemergence): 10
Plant response rating, Sugarbeets ([10]; Rate 125 g/ha, Preemergence): 10
Plant response rating, Sugarbeets ([10]; Rate 250 g/ha, Postemergence): 10
Plant response rating, Sugarbeets ([10]; Rate 250 g/ha, Preemergence): 10
Plant response rating, Sugarbeets ([10]; Rate 500 g/ha, Postemergence): 10
Plant response rating, Sugarbeets ([10]; Rate 500 g/ha, Preemergence): 10
Plant response rating, Velvetleaf [11, 13]: 9
Velvetleaf plant response rating ([11]; Rate 62 g/ha, Postemergence): 7
Velvetleaf plant response rating ([11]; Rate 125 g/ha, Postemergence): 7
Plant response rating, Velvetleaf ([11]; Rate 125 g/ha, Preemergence): 10
Plant response rating, Velvetleaf ([11]; Rate 250 g/ha, Postemergence): 8
Plant response rating, Velvetleaf ([11]; Rate 250 g/ha, Preemergence): 10
Plant response rating, Velvetleaf ([11]; Rate 500 g/ha, Postemergence): 8
Plant response rating, Velvetleaf ([11]; Rate 500 g/ha, Preemergence): 10
Plant response rating, Wheat [12, 13]: 1
Wheat plant response rating ([12]; Rate 62 g/ha, Postemergence): 3
Wheat plant response rating ([12]; Rate 125 g/ha, Postemergence): 3
Plant response rating, Wheat ([12]; Rate 125 g/ha, Preemergence): 3
Plant response rating, Wheat ([12]; Rate 250 g/ha, Postemergence): 3
Plant response rating, Wheat ([12]; Rate 250 g/ha, Preemergence): 4
Plant response rating, Wheat ([12]; Rate 500 g/ha, Postemergence): 4
Plant response rating, Wheat ([12]; Rate 500 g/ha, Preemergence): 4
Plant response rating, Wild oats (wild oat (Avena fatua); [13]): 4
Wild oats plant response rating (wild oat (Avena fatua); Rate 62 g/ha, Postemergence): 3
Wild oats plant response rating (wild oat (Avena fatua); Rate 125 g/ha, Postemergence): 3
Plant response rating, Wild oats (wild oat (Avena fatua); Rate 125 g/ha, Preemergence): 5
Plant response rating, Wild oats (wild oat (Avena fatua); Rate 250 g/ha, Postemergence): 3
Plant response rating, Wild oats (wild oat (Avena fatua); Rate 250 g/ha, Preemergence): 7
Plant response rating, Wild oats (wild oat (Avena fatua); Rate 500 g/ha, Postemergence): 5
Plant response rating, Wild oats (wild oat (Avena fatua); Rate 500 g/ha, Preemergence): 8
